Test results from PMC6560211, “ApoAI-derived peptide increases glucose tolerance and prevents formation of atherosclerosis in mice” (Diabetologia, 2019).

Key:
DIO C57BL/6NTac mice = assay: GTT in diet-induced obesity (DIO) mice; assay type: in vivo, mouse; conditions: for fasting glucose levels / fasting insulin levels / insulin sensitivity as measured by QUICKI: DIO mice, 3 h treatment, i.p.
Protocol: (§1) Male C57BL/6NTac mice (Taconic, Ejby, Denmark) at 8–9 weeks of age were acclimatised for 1 week on a normal chow diet, then changed to a high-fat diet for 2 weeks (diet-induced obesity; DIO), followed by GTT as indicated. Male Lepr^db (db/db) mice on a BKS background (Taconic) at 5 weeks of age were maintained on a normal chow diet and GTTs were performed at 5.5 and 14 weeks of age as indicated. Blood glucose levels were measured in fresh blood (C57: OneTouch Ultra2, Lifescan, Milpitas, CA, USA; db/db: GlucoSmart Swing, MSP bodmann, Bobingen, Germany) and insulin levels were assayed in serum using ELISA (Mercodia) at the times indicated in ESM Fig. 2. See ESM Methods for more details.
The effect of RG54 peptide on glucose disposal was investigated in an established insulin-resistant mouse model. DIO mice were fasted for 9 h followed by a single i.p. dose of RG54 (12 mg/kg), ApoA-I (14 mg/kg), liraglutide (0.1 mg/kg), or an equal volume of NaCl solution. After a further 3 h fasting period, GTTs were performed (Fig. 4a,b).
(§2) Fig. 4 Acute treatment with RG54 improves glucose tolerance during GTTs in three models of type 2 diabetes. Male C57Bl/6 mice fed a high-fat diet for 2 weeks (a–d) or db/db mice at 5.5 (e–h) or 14 (i–l) weeks old were fasted overnight, then treated with a single i.p. injection of NaCl (negative control, 200 μl; C57, n=12; db/db 5.5 weeks, n=6; db/db 14 weeks, n=6), liraglutide (0.1 mg/kg; C57, n=11; db/db 5.5 weeks, n=6; db/db 14 weeks, n=6), ApoA-I (14 mg/kg; C57, n=12; db/db 5.5 weeks, n=6; db/db 14 weeks, n=6) or RG54 (12 mg/kg; C57, n=12; db/db 5.5 weeks, n=6; db/db 14 weeks, n=5). After a further 3 h, mice received an i.p. glucose load (40 mg/mouse for C57; 50 mg/mouse for db/db) followed by blood and plasma collection at the indicated times, and blood glucose (a,e,i) and plasma insulin (b,f,j) concentrations were determined. Total AUC was calculated (mmol/l × min for glucose, pmol/l × min for insulin) and then normalised to the average value of the relevant NaCl control group to give relative AUC (% control) for glucose (c,g,k) and insulin (d,h,l). Values are means ± SEM. *p≤0.05, **p≤0.01, ***p≤0.001 vs NaCl control […]
We directly compared the i.p. and s.c. injection routes in DIO mice. DIO mice were fasted for 9 h, followed by a single i.p. or s.c. injection of RG54 (12 mg/kg), ApoA-I (14 mg/kg), or an equal volume of NaCl solution. After a further 3 h fasting and incubation period, GTTs were performed. […] Finally, we assessed the dose response of s.c. RG54 to find treatment concentrations with full or partial effects on glycaemic control as compared with our positive control (Fig. 6).
Male C57Bl/6 mice fed a high-fat diet for 2 weeks were fasted overnight, then treated with a single i.p. or s.c. injection of NaCl (negative control, 200 μl, n=6), ApoA-I (14 mg/kg, n=6) or RG54 (12 mg/kg, n=6). After a further 3 h, all mice received an i.p. glucose load (40 mg/mouse) followed by blood and plasma collection at the indicated times, and blood glucose (a,b) and plasma insulin (d,e) concentrations were determined for all injection routes. Total AUC was calculated (mmol/l × min for glucose, pmol/l × min for insulin) and then normalised to the average value of the relevant NaCl control group to give relative AUC (% control) for glucose (c) and insulin (f). Values are means ± SEM. ***p≤0.001 vs NaCl control […]
Male C57BL/6NTac mice were purchased from Taconic (Ejby, Denmark) at 8-9 weeks of age, acclimatised for one week on normal chow diet, then changed to a High-Fat Diet (HFD; Research Diets D12492, 60% fat content) for 2 weeks, followed by glucose tolerance testing (GTT) with timings as indicated (ESM Figure 2). Male Leprdb mice (db/db) on BKS background purchased from Taconic (BKS.Cg-m+/+Leprdb/BomTac, Ejby, Denmark) at 5 weeks of age were maintained on normal chow diet and GTTs were performed at 5.5 and 14 weeks of age with timings as indicated (ESM Figure 2). For the GTTs, mice fasted overnight […]

Lepr db (db/db) mice = assay: GTT in db/db mice; assay type: in vivo, mouse; conditions: db/db 5.5 weeks
Protocol: as §1, §2
We next used type 2 diabetes models with a more advanced phenotype: db/db mice at 5.5 and 14 weeks of age.
At 14 weeks of age, mice were markedly obese with a mean ± SEM body weight of 55.3 ± 0.6 g. […] One mouse was excluded from RG54 treatment group because of very high residual insulin secretion prior to the experiment.
Male C57BL/6NTac mice were purchased from Taconic (Ejby, Denmark) at 8-9 weeks of age, acclimatised for one week on normal chow diet, then changed to a High-Fat Diet (HFD; Research Diets D12492, 60% fat content) for 2 weeks, followed by glucose tolerance testing (GTT) with timings as indicated (ESM Figure 2). Male Leprdb mice (db/db) on BKS background purchased from Taconic (BKS.Cg-m+/+Leprdb/BomTac, Ejby, Denmark) at 5 weeks of age were maintained on normal chow diet and GTTs were performed at 5.5 and 14 weeks of age with timings as indicated (ESM Figure 2). For the GTTs, mice fasted overnight (9 h) were injected with the appropriate treatment, and after an additional 3 h given ip glucose (C57: 40 mg/mouse; db/db: 50 mg/mouse) followed by collection of serum samples at the indicated times. Blood glucose levels were measured in fresh blood (C57: OnetouchUltra2, Lifescan; db/db: GlucoSmart Swing, MSP bodmann) and insulin levels were assayed in serum using ELISA (Mercodia). db/db mice were independently randomized to treatments groups for GTT at each time point as no carry over was expected between experiments due to the acute nature of the treatment effects. Primary outcomes were blood glucose and insulin measurements during the GTT. C57BL/6NTac mice were euthanized immediately after each experiment whereas db/db were euthanized immediately after the GTT at 14 weeks of age. […]
and reproducible clinical symptoms of diabetes than females in these models [5; 6] thus ensuring the reproducibility of clinical symptoms between animals within the study. […]

[1] = rHDL formation, particle size by DLS; conditions: 1:100 protein:lipid molar ratio, extruded 100 nm MLVs, 4 days (96 h), 24°C
Protocol: 1,2-dimyristoyl-sn-glycero-3-phosphocholine (DMPC; Avanti Polar Lipids, Alabaster, AL, USA) was formed into 100 nm multilamellar vesicles (MLV) via extrusion using the LiposoFast system (Avestin, Ottawa, ON, Canada) as previously described. MLV were incubated with RG54 or ApoA-I at the indicated ratios for 4 days at 24°C to form rHDL. The resulting particle sizes were measured by dynamic light scattering (DLS) using a Zetasizer APS (Malvern Instruments, Uppsala, Sweden).
The reduced initial rate may be due to a more complex binding pattern of the larger number of RG54 peptides needed per formed particle: four to five RG54 molecules (54 amino acids each) are needed to make up the size of full-length ApoA-I (243 amino acids). A qualitative assessment of particle formation was therefore next used to evaluate and compare the sizes of formed rHDL. The hydrodynamic diameters of lipid–protein complexes formed after extended incubation (96 h) of RG54 or ApoA-I with extruded 100 nm MLVs were estimated using DLS.
ESM Figure 4. Lipid clearance and peptide-lipid complex formation activity of RG54 compared with full-length ApoA-I. […]

Compound: CCCCCCCCCCCCCCCC(=O)N[C@@H](CCC(=O)NCCCC[C@H](NC(=O)[C@H](C)NC(=O)[C@H](C)NC(=O)[C@H](CCC(N)=O)NC(=O)CNC(=O)[C@H](CCC(=O)O)NC(=O)[C@H](CC(C)C)NC(=O)[C@H](Cc1ccc(O)cc1)NC(=O)[C@H](CO)NC(=O)[C@H](CO)NC(=O)[C@@H](NC(=O)[C@H](CC(=O)O)NC(=O)[C@H](CO)NC(=O)[C@@H](NC(=O)[C@H](Cc1ccccc1)NC(=O)[C@@H](NC(=O)CNC(=O)[C@H](CCC(=O)O)NC(=O)[C@H](C)NC(=O)[C@@H](N)Cc1c[nH]cn1)[C@@H](C)O)[C@@H](C)O)C(C)C)C(=O)N[C@@H](CCC(=O)O)C(=O)N[C@@H](Cc1ccccc1)C(=O)N[C@H](C(=O)N[C@@H](C)C(=O)N[C@@H](Cc1c[nH]c2ccccc12)C(=O)N[C@@H](CC(C)C)C(=O)N[C@H](C(=O)N[C@@H](CCCNC(=N)N)C(=O)NCC(=O)N[C@@H](CCCNC(=N)N)C(=O)NCC(=O)O)C(C)C)[C@@H](C)CC)C(=O)O [liraglutide, reference compound]
- fasting glucose levels (DIO C57BL/6NTac mice): significantly lowered
- fasting insulin levels (DIO C57BL/6NTac mice): no concomitant increase
- insulin sensitivity as measured by QUICKI (DIO C57BL/6NTac mice): no change
- insulin secretion at the 15-min time point (Lepr db (db/db) mice; liraglutide 0.1 mg/kg i.p.): modest, transient increase
- overall insulin AUC (Lepr db (db/db) mice; liraglutide 0.1 mg/kg i.p.): not increased

Compound: ApoA-I: Recombinant human ApoA-I, full-length (243 amino acids), used as control
- lipid-protein complexes formed (DLS frequency plots) [1]: single peaks corresponding to rHDL particles
- fasting glucose levels (DIO C57BL/6NTac mice): significantly lowered
- fasting insulin levels (DIO C57BL/6NTac mice): no concomitant increase
- insulin sensitivity as measured by QUICKI (DIO C57BL/6NTac mice): no change
- insulin secretion in GTT (DIO C57BL/6NTac mice; route comparison, i.p. injection, RG54 12 mg/kg, ApoA-I 14 mg/kg, n=6): increased insulin secretion
- fasting glucose levels (Lepr db (db/db) mice; 3 h treatment, i.p.): significantly lowered
- fasting insulin secretion (Lepr db (db/db) mice; 3 h treatment, i.p.): no significant changes
- insulin sensitivity as measured by QUICKI (Lepr db (db/db) mice; 3 h treatment, i.p.): no concomitant change
